Data: ChEMBL document CHEMBL1130186, “Potent alpha 4 beta 1 peptide antagonists as potential anti-inflammatory agents” (J Med Chem, 1997)
pIC50: −log10 of the molar value. *1 amine or outer side, *2 acyl side, *3 side chain or, on linkers, in order; H or OH if unused. Where a SMILES comes first, the peptide text is derived from it. Bridges are numbered along the chain shown (N, C = ends). [ ]: non-standard residue; d: D form. The star is where a group is joined. ξ: configuration not given here. X3 = O=C([C@H]1[C@H](c2ccc(O)cc2)CCN1[*:1])[*:2]; Fluorene(1-CO) = O=C(c1cccc2c1Cc1ccccc1-2)*; Tyr(3-Cl) = N[C@@H](Cc1ccc(O)c(Cl)c1)C(=O)O; Tyr(3-F) = N[C@@H](Cc1ccc(O)c(F)c1)C(=O)O; Tyr(3-I) = N[C@@H](Cc1ccc(O)c(I)c1)C(=O)O; Oic(3aξ,7aξ) = O=C(O)[C@@H]1CC2CCCCC2N1; X1 = O=C(C(Cc1ccc(O)cc1)c1ccccc1)*; 2Naphthoyl = O=C(c1ccc2ccccc2c1)*; X4 = O=C(c1ccc(-c2ccc(O)cc2)cc1)*; Cha = N[C@@H](CC1CCCCC1)C(=O)O; Phg = N[C@H](C(=O)O)c1ccccc1; 4Amb = NCc1ccc(C(=O)O)cc1; 3Abz = Nc1cccc(C(=O)O)c1; 4Abz = Nc1ccc(C(=O)O)cc1; Bz = O=C(c1ccccc1)*; βAla = NCCC(=O)O

How the values were obtained:
[1] = biological target: T1, Integrin alpha-4/beta-1 (Homo sapiens, UniProt P05556+P13612); assay: Inhibition of fluorescently labeled alpha4-beta1 positive Ramos cells binding to immobilized VCAM-1.; assay type: cell-based
T1 sequence (P05556 whole entry): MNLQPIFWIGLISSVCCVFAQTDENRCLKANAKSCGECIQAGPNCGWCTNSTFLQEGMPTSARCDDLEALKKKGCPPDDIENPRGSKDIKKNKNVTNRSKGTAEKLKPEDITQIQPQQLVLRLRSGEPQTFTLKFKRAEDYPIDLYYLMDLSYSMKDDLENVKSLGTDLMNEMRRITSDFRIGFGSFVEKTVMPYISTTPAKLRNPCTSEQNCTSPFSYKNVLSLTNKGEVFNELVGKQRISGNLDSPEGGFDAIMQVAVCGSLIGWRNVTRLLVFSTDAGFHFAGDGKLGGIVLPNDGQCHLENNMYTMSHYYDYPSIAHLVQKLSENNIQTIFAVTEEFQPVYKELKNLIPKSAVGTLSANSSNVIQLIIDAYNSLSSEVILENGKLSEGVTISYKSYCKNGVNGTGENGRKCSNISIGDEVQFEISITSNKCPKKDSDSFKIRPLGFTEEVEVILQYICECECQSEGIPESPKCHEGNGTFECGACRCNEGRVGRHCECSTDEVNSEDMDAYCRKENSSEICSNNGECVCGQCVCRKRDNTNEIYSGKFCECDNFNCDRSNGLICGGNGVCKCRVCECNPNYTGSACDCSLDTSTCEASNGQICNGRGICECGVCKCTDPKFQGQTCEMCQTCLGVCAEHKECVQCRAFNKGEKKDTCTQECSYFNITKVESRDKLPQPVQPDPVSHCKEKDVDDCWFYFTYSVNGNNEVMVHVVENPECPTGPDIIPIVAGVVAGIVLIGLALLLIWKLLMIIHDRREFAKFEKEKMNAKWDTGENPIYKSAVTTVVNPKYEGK
T1 sequence (P13612 whole entry): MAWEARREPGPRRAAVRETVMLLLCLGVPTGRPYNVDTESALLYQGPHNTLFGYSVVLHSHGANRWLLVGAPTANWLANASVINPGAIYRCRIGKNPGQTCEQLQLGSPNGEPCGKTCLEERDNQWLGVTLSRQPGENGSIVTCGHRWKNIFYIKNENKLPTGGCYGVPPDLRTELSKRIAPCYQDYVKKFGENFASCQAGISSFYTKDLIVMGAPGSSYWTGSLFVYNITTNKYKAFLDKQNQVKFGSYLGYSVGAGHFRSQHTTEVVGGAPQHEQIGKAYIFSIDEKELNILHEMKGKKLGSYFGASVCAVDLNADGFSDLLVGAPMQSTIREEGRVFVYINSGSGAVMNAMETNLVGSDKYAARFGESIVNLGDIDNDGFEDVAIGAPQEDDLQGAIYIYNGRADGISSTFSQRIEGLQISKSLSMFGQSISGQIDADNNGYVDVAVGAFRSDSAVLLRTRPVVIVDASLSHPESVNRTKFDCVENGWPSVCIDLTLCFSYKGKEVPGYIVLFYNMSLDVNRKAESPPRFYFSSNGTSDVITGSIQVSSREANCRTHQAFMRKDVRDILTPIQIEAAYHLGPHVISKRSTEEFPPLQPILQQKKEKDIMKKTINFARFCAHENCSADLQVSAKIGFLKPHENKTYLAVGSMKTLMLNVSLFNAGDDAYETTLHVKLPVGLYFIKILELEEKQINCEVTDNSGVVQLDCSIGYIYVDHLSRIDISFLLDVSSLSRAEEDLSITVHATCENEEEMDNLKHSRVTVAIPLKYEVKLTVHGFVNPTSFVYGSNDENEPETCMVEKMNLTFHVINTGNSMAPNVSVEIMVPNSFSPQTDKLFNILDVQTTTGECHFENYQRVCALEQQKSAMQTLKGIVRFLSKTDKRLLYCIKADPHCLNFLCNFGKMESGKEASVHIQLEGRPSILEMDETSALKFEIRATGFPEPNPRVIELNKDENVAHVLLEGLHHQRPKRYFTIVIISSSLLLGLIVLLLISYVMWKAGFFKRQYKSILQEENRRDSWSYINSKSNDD

[2] = biological target: T1, Integrin alpha-4/beta-1; assay: Inhibition of purified alpha-4 beta-1 binding to VCAM-1 was determined in an ELISA assay.; assay type: protein-complex assay
[3] = biological target: T1, Integrin alpha-4/beta-1; assay: Inhibition of alpha4-beta1 binding to VCAM-1 in ELISA.; assay type: protein-complex assay

SMILES	pIC50 [1]	pIC50 [2]	pIC50 [3]
C[C@@H]1NC(=O)[C@@H](NC(=O)[C@H](CCCN=C(N)N)NC(=O)[C@@H](N)Cc2ccc(O)cc2)CSSC[C@@H](C(=O)O)NC(=O)[C@@H]2CCCN2C1=O (H-YRCAPC-OH; disulfide 3-6)	5.10	7.22	–
N[C@@H](Cc1ccc(O)cc1)C(=O)N[C@H]1CSSC[C@@H](C(=O)O)NC(=O)c2ccc(cc2)NC1=O (H-YC[4Abz]C-OH; disulfide 2-4)	5.38	6.80	–
N[C@@H](Cc1ccc(O)cc1)C(=O)N[C@H]1CSSC[C@@H](C(=O)O)NC(=O)c2ccc(cc2)CNC1=O (H-YC[4Amb]C-OH; disulfide 2-4)	4.82	6.38	–
N[C@@H](Cc1ccc(O)cc1)C(=O)N[C@H]1CSSC[C@@H](C(=O)O)NC(=O)CCNC1=O (H-YC[βAla]C-OH; disulfide 2-4)	3.68	5.38	–
N[C@@H](Cc1ccc(O)c(I)c1)C(=O)N[C@H]1CSSC[C@@H](C(=O)O)NC(=O)[C@@H]2CCCN2C(=O)[C@H](CO)NC1=O (H-[Tyr(3-I)]CSPC-OH; disulfide 2-5)	6.70	8.40	–
N[C@@H](Cc1ccc(O)c(F)c1)C(=O)N[C@H]1CSSC[C@@H](C(=O)O)NC(=O)[C@@H]2CCCN2C(=O)[C@H](CO)NC1=O (H-[Tyr(3-F)]CSPC-OH; disulfide 2-5)	6.30	8.10	–
C[C@@H]1NC(=O)[C@@H](NC(=O)[C@@H](N)Cc2ccc(O)cc2)CSSC[C@@H](C(=O)O)NC(=O)[C@H](CC2CCCCC2)NC1=O (H-YCA[Cha]C-OH; disulfide 2-5)	4.60	6.85	–
C[C@@H]1NC(=O)[C@@H](NC(=O)[C@@H](N)Cc2ccc(O)cc2)CSSC[C@@H](C(=O)O)NC(=O)[C@@H]2CC3CCCCC3N2C1=O (stereo not given in full) (H-YCA[Oic(3aξ,7aξ)]C-OH; disulfide 2-5)	5.33	7.70	–
N[C@@H](Cc1ccc(O)c(Cl)c1)C(=O)N[C@H]1CSSC[C@@H](C(=O)O)NC(=O)[C@@H]2CCCN2C(=O)[C@H](CO)NC1=O (H-[Tyr(3-Cl)]CSPC-OH; disulfide 2-5)	6.22	8.15	–
CC(=O)N[C@@H](Cc1ccc(O)cc1)C(=O)N[C@H]1CSSC[C@@H](C(=O)O)NC(=O)[C@H](c2ccccc2)NC(=O)[C@H](C)NC1=O (Ac-YCA[Phg]C-OH; disulfide 2-5)	4.48	7.12	–
N=C(N)NCCC[C@H](NC(=O)[C@@H](N)Cc1ccc(O)cc1)C(=O)N[C@H]1CSSC[C@@H](C(=O)O)NC(=O)[C@@H]2CCCN2C(=O)[C@H](CCC(N)=O)NC1=O (H-YRCQPC-OH; disulfide 3-6)	5.05	7.30	–
N[C@@H](Cc1ccc(O)cc1)C(=O)N[C@H]1CSSC[C@@H](C(=O)O)NC(=O)c2cccc(c2)NC1=O (H-YC[3Abz]C-OH; disulfide 2-4)	–	–	8.10

Second part, led by results:

pIC50 [1]	pIC50 [2]	SMILES	pIC50 [3]
5.82	6.85	O=C(N[C@H]1CSSC[C@@H](C(=O)O)NC(=O)[C@@H]2CCCN2C(=O)[C@H](CO)NC1=O)c1cccc2c1Cc1ccccc1-2 ({Fluorene(1-CO)}-CSPC-OH; disulfide 1-4)	–
4.40	5.89	CC(=O)N[C@@H](CCCN=C(N)N)C(=O)N[C@H]1CSSC[C@@H](C(=O)O)NC(=O)[C@@H]2CCCN2C(=O)[C@H](CC(=O)O)NC1=O (Ac-RCDPC-OH; disulfide 2-5)	–
4.10	–	NC(N)=NCCC[C@H](N)C(=O)N[C@H]1CSSC[C@@H](C(=O)O)NC(=O)[C@@H]2CCCN2C(=O)[C@H](CC(=O)O)NC1=O (H-RCDPC-OH; disulfide 2-5)	5.43
6.51	8.40	CC(=O)N[C@@H](Cc1ccc(O)cc1)C(=O)N[C@H]1CSSC[C@@H](C(=O)O)NC(=O)[C@@H]2CCCN2C(=O)[C@H](C)NC1=O (Ac-YCAPC-OH; disulfide 2-5)	–
5.72	6.87	O=C(N[C@H]1CSSC[C@@H](C(=O)O)NC(=O)[C@@H]2CCCN2C(=O)[C@H](CO)NC1=O)c1ccccc1 (Bz-CSPC-OH; disulfide 1-4)	–
6.92	8.70	CC(=O)N[C@@H](Cc1ccc(O)cc1)C(=O)N[C@H]1CSSC[C@@H](C(=O)O)NC(=O)[C@@H]2CCCN2C(=O)[C@H](CO)NC1=O (Ac-YCSPC-OH; disulfide 2-5)	–
5.44	7.27	O=C(N[C@H]1CSSC[C@@H](C(=O)O)NC(=O)[C@@H]2CCCN2C(=O)[C@H](CO)NC1=O)c1ccc2ccccc2c1 (2Naphthoyl-CSPC-OH; disulfide 1-4)	–
3.92	5.78	O=C(N[C@H]1CSSC[C@@H](C(=O)O)NC(=O)[C@@H]2CCCN2C(=O)[C@H](CO)NC1=O)c1ccc(-c2ccc(O)cc2)cc1 (X4-CSPC-OH; disulfide 1-4)	–
4.00	5.68	NC(N)=NCCC[C@H](NC(=O)[C@@H](N)Cc1ccccc1)C(=O)N[C@H]1CSSC[C@@H](C(=O)O)NC(=O)[C@@H]2CCCN2C(=O)[C@H](CC(=O)O)NC1=O (H-FRCDPC-OH; disulfide 3-6)	–
8.10	9.30	CC(=O)N1CC[C@@H](c2ccc(O)cc2)[C@@H]1C(=O)N[C@H]1CSSC[C@@H](C(=O)O)NC(=O)[C@@H]2CCCN2C(=O)[C@H](CO)NC1=O (Ac-[X3]CSPC-OH; disulfide 2-5)	–
5.70	7.89	O=C(N[C@H]1CSSC[C@@H](C(=O)O)NC(=O)[C@@H]2CCCN2C(=O)[C@H](CO)NC1=O)C(Cc1ccc(O)cc1)c1ccccc1 (stereo not given in full) (X1-CSPC-OH; disulfide 1-4)	–
